We go through 5 compounds from PubChem BioAssay AID1259407 (Chemical Carcinogenesis Research Information System (CCRIS), 2018).

This data set has as its system CCRIS mutagenicity, Ames/micronucleus/aberration tests. The data set is described as follows: CCRIS mutagenicity studies.
Where [1] appears, read: Test System: AMES SALMONELLA TYPHIMURIUM, Strain/Indicator: TA97, Metabolic Activation: HAMSTER, LIVER, S-9, AROCLOR 1254 (10%), Method: PREINCUBATION
Where [2] appears, read: Test System: AMES SALMONELLA TYPHIMURIUM, Strain/Indicator: TA97, Metabolic Activation: HAMSTER, LIVER, S-9, AROCLOR 1254 (30%), Method: PREINCUBATION
Setting [3] is: Test System: AMES SALMONELLA TYPHIMURIUM, Strain/Indicator: TA97, Metabolic Activation: NONE, Method: PREINCUBATION
[4] abbreviates: Test System: AMES SALMONELLA TYPHIMURIUM, Strain/Indicator: TA97, Metabolic Activation: RAT, LIVER, S-9, AROCLOR 1254 (10%), Method: PREINCUBATION
Setting [5] is: Test System: AMES SALMONELLA TYPHIMURIUM, Strain/Indicator: TA97, Metabolic Activation: RAT, LIVER, S-9, AROCLOR 1254 (30%), Method: PREINCUBATION
The mark [6] stands for this setting: Test System: AMES SALMONELLA TYPHIMURIUM, Strain/Indicator: TA98, Metabolic Activation: HAMSTER, LIVER, S-9, AROCLOR 1254 (10%), Method: PREINCUBATION
Setting [7] is: Test System: AMES SALMONELLA TYPHIMURIUM, Strain/Indicator: TA98, Metabolic Activation: HAMSTER, LIVER, S-9, AROCLOR 1254 (30%), Method: PREINCUBATION
Where [8] appears, read: Test System: AMES SALMONELLA TYPHIMURIUM, Strain/Indicator: TA98, Metabolic Activation: NONE, Method: PREINCUBATION
Setting [9] is: Test System: AMES SALMONELLA TYPHIMURIUM, Strain/Indicator: TA98, Metabolic Activation: RAT, LIVER, S-9, AROCLOR 1254 (10%), Method: PREINCUBATION
Where [10] appears, read: Test System: AMES SALMONELLA TYPHIMURIUM, Strain/Indicator: TA98, Metabolic Activation: RAT, LIVER, S-9, AROCLOR 1254 (30%), Method: PREINCUBATION
Where [11] appears, read: Test System: AMES SALMONELLA TYPHIMURIUM, Strain/Indicator: TA100, Metabolic Activation: HAMSTER, LIVER, S-9, AROCLOR 1254 (10%), Method: PREINCUBATION
Where [12] appears, read: Test System: AMES SALMONELLA TYPHIMURIUM, Strain/Indicator: TA100, Metabolic Activation: HAMSTER, LIVER, S-9, AROCLOR 1254 (30%), Method: PREINCUBATION
The mark [13] stands for this setting: Test System: AMES SALMONELLA TYPHIMURIUM, Strain/Indicator: TA100, Metabolic Activation: NONE, Method: PREINCUBATION
[14] abbreviates: Test System: AMES SALMONELLA TYPHIMURIUM, Strain/Indicator: TA100, Metabolic Activation: RAT, LIVER, S-9, AROCLOR 1254 (10%), Method: PREINCUBATION
[15] abbreviates: Test System: AMES SALMONELLA TYPHIMURIUM, Strain/Indicator: TA100, Metabolic Activation: RAT, LIVER, S-9, AROCLOR 1254 (30%), Method: PREINCUBATION
[16] abbreviates: Test System: AMES SALMONELLA TYPHIMURIUM, Strain/Indicator: TA1535, Metabolic Activation: HAMSTER, LIVER, S-9, AROCLOR 1254 (10%), Method: PREINCUBATION
Setting [17] is: Test System: AMES SALMONELLA TYPHIMURIUM, Strain/Indicator: TA1535, Metabolic Activation: HAMSTER, LIVER, S-9, AROCLOR 1254 (30%), Method: PREINCUBATION
[18] abbreviates: Test System: AMES SALMONELLA TYPHIMURIUM, Strain/Indicator: TA1535, Metabolic Activation: NONE, Method: PREINCUBATION
Setting [19] is: Test System: AMES SALMONELLA TYPHIMURIUM, Strain/Indicator: TA1535, Metabolic Activation: RAT, LIVER, S-9, AROCLOR 1254 (10%), Method: PREINCUBATION
Where [20] appears, read: Test System: AMES SALMONELLA TYPHIMURIUM, Strain/Indicator: TA1535, Metabolic Activation: RAT, LIVER, S-9, AROCLOR 1254 (30%), Method: PREINCUBATION
Where [21] appears, read: Test System: AMES SALMONELLA TYPHIMURIUM, Strain/Indicator: TA100, Metabolic Activation: NONE, Method: STANDARD PLATE.

Activity calls are given as the source filed them. How the calls were made is not given here.

As for `O=Cc1c(Cl)cccc1Cl`, the mutagenic call is, setting by setting: under setting [1], “inactive; negative”; under setting [2], “inactive; negative”; under setting [3], “inactive; negative”; under setting [4], “inactive; negative”; under setting [5], “inactive; negative”; under setting [6], “inactive; negative”. Also, the mutagenic call runs as follows: under setting [7], “inactive; negative”; under setting [8], “inactive; negative”; (Test System: AMES SALMONELLA TYPHIMURIUM, Strain/Indicator: TA98, Metabolic Activation: RAT LIVER S-9 PCB, Method: PREINCUBATION) “inactive; negative”; under setting [9], “inactive; negative”; under setting [10], “inactive; negative”; under setting [11], “inactive; negative”. Further, the mutagenic call was “inactive; negative” under setting [12]; “inactive; negative” under setting [13]; “inactive; negative” (Test System: AMES SALMONELLA TYPHIMURIUM, Strain/Indicator: TA100, Metabolic Activation: RAT LIVER S-9, PCB, Method: PREINCUBATION); “inactive; negative” under setting [14]; “inactive; negative” under setting [15]; “inactive; negative” (Test System: AMES SALMONELLA TYPHIMURIUM, Strain/Indicator: TA104, Metabolic Activation: HAMSTER, LIVER, S-9, AROCLOR 1254 (10%), Method: PREINCUBATION). Besides, the mutagenic call was “inactive; negative” (Test System: AMES SALMONELLA TYPHIMURIUM, Strain/Indicator: TA104, Metabolic Activation: HAMSTER, LIVER, S-9, AROCLOR 1254 (30%), Method: PREINCUBATION); “inactive; negative” (Test System: AMES SALMONELLA TYPHIMURIUM, Strain/Indicator: TA104, Metabolic Activation: NONE, Method: PREINCUBATION); “inactive; negative” (Test System: AMES SALMONELLA TYPHIMURIUM, Strain/Indicator: TA104, Metabolic Activation: RAT LIVER S-9, PCB, Method: PREINCUBATION); “inactive; negative” (Test System: AMES SALMONELLA TYPHIMURIUM, Strain/Indicator: TA104, Metabolic Activation: RAT, LIVER, S-9, AROCLOR 1254 (10%), Method: PREINCUBATION); “inactive; negative” (Test System: AMES SALMONELLA TYPHIMURIUM, Strain/Indicator: TA104, Metabolic Activation: RAT, LIVER, S-9, AROCLOR 1254 (30%), Method: PREINCUBATION); “inactive; negative” under setting [16]. Besides, the mutagenic call by setting is: under setting [17], “inactive; negative”; under setting [18], “inactive; negative”; under setting [19], “inactive; negative”; under setting [20], “inactive; negative”; (Test System: E.COLI, Strain/Indicator: WP2 UVRA, Metabolic Activation: NONE, Method: PREINCUBATION) “inactive; negative”; (Test System: E.COLI, Strain/Indicator: WP2 UVRA, Metabolic Activation: RAT LIVER S-9, PCB, Method: PREINCUBATION) “inactive; negative”.

As for `c1cc2c3c(cccc3c1)CC2`, the mutagenic call runs as follows: under setting [1], “inactive; negative”; under setting [2], “inactive; negative”; under setting [3], “inactive; negative”; under setting [4], “inactive; negative”; under setting [5], “inactive; negative”; under setting [6], “inactive; negative”. Besides, the mutagenic call reads like this: under setting [7], “inactive; negative”; under setting [8], “inactive; negative”; under setting [9], “inactive; negative”; under setting [10], “inactive; negative”; under setting [11], “inactive; negative”; under setting [12], “inactive; negative”. In addition, the mutagenic call was “inactive; negative” under setting [13]; “inactive; negative” under setting [14]; “inactive; negative” under setting [15]; “inactive; negative” under setting [16]; “inactive; negative” under setting [17]; “inactive; negative” under setting [18]. The mutagenic call under setting [19] is “inactive; negative”; the mutagenic call under setting [20] was “inactive; negative”; the mutagenic call (Test System: AMES SALMONELLA TYPHIMURIUM, Strain/Indicator: TA1537, Metabolic Activation: HAMSTER, LIVER, S-9, AROCLOR 1254 (30%), Method: PREINCUBATION) was “inactive; negative”; the mutagenic call (Test System: AMES SALMONELLA TYPHIMURIUM, Strain/Indicator: TA1537, Metabolic Activation: NONE, Method: PREINCUBATION) was “inactive; negative”; the mutagenic call (Test System: AMES SALMONELLA TYPHIMURIUM, Strain/Indicator: TA1537, Metabolic Activation: RAT, LIVER, S-9, AROCLOR 1254 (30%), Method: PREINCUBATION) is “inactive; negative”.

For the compound `COc1ccc2c(cc3c4c(cc5c(c42)OCO5)CCN3C)c1OC`, the mutagenic call reads like this: (Test System: AMES SALMONELLA TYPHIMURIUM, Strain/Indicator: TA98, Metabolic Activation: RAT, LIVER, S-9, PHENOBARBITAL AND BETA-NAPHTHOFLAVONE, Method: PREINCUBATION) “active; positive”; (Test System: AMES SALMONELLA TYPHIMURIUM, Strain/Indicator: TA100, Metabolic Activation: RAT, LIVER, S-9, PHENOBARBITAL AND BETA-NAPHTHOFLAVONE, Method: PREINCUBATION) “active; positive”.

In the case of `CC(=O)OCc1c2ccccc2cc2c1ccc1ccccc12`, the mutagenic call (Test System: AMES SALMONELLA TYPHIMURIUM, Strain/Indicator: TA98, Metabolic Activation: NONE, Method: STANDARD PLATE) is “active; positive” and the mutagenic call under setting [21] is “active; positive”.

Turning to `O=C1C=CC(=O)C1(Cl)Cl`, the mutagenic call under setting [21] is “active; positive”.
